Laboratory results reported in the METLIN SMRT retention time set (Domingo-Almenara et al. 2019).

Assay: gradient 5% acetonitrile 3 min, to 50% in 2 min, to 85% in 15 min, held 3 min, 100 µL/min
Conditions: column: Zorbax Extend-C18 2.1 x 50 mm; eluents: water / acetonitrile, 0.1% formic acid
In short: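 Pure standards were analyzed in mixtures of ~100 molecules using HPLC coupled to a quadrupole time-of-flight mass spectrometer, in both positive and negative ionization mode. Separation used a Zorbax Extend-C18 column (2.1 × 50 mm, 1.8 μm) at 100 μL/min, with water and acetonitrile each containing 0.1% formic acid. Dead and dwell volumes were 40 μL and 900 μL, and data were collected over 3 months. Retention time was read from computationally picked adduct peaks, each inspected manually.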

Row | Compound | RP-LC retention time
1 | CCCn1c(=O)c2cc(C(=O)NCc3ccc(C)cc3)nn2c2ccccc21 | 1030 s
2 | CCOC(=O)c1cccc(NC(=O)CCc2c(-c3ccc(Cl)cc3)nc3ccccn23)c1 | 739 s
3 | Cc1nnc2sc(SCc3ccc([N+](=O)[O-])cc3)nn2c1=O | 697 s
4 | COc1ccc(-c2nnc(Cc3nc(-c4ccccc4C)no3)o2)cc1OC | 957 s
5 | CSc1ccccc1NC(=O)C(=O)NCC(c1ccc2c(c1)CCCN2C)N1CCCC1 (configuration not stated) | 784 s
6 | CCOC(=O)N1CCN(C(=O)Nc2cccc(Cl)c2)CC1 | 732 s
7 | OC1CCCCC1N1CCC(c2ccccc2)CC1 (configuration not stated) | 679 s
8 | CNC(=O)N1CCc2c(c(-c3nc(-c4ccc(F)cc4)no3)nn2C)C1 | 723 s
9 | O=C(NCC#CCN1CCc2ccccc2C1)NC1CCCCC1 | 566 s
10 | Cc1ccc(-c2nccn3cc(C(=O)N4CCN(CC(C)C)CC4)nc23)cc1 | 656 s
11 | CCc1nc(-c2nnn(-c3ccccc3)c2C)no1 | 863 s
12 | CCc1nccn1Cc1nc(-c2ccc(C)c(C)c2)no1 | 681 s
13 | COc1ccc(-c2cc3c(=O)n(Cc4ccc(C)cc4C)ccn3n2)cc1OC | 1020 s
14 | Cc1sc(C)c(S(=O)(=O)NCC(C)c2ccccc2)c1-c1cc(C(F)(F)F)on1 (configuration not stated) | 1250 s
15 | O=C(c1cc2ccccc2[nH]1)N1CCC(c2noc(C3CC3)n2)C1 (configuration not stated) | 1440 s
16 | CCn1c(=O)c(C)nc2cc(-c3noc(-c4cc(OC)c(OC)c(OC)c4)n3)ccc21 | 919 s
17 | Cc1ccc(S(=O)(=O)N2CCC(CCNC(=O)NCCc3ccccc3)CC2)cc1 | 924 s
18 | Cc1nc2cc(N3CCC(C(=O)NCCC4=CCCCC4)CC3)cnc2nc1C | 767 s
19 | COc1ccccc1N1CCN(C(=O)C2CCN(c3ncnc4c3oc3ccccc34)CC2)CC1 | 765 s
20 | O=C(Nc1nnc(SCc2cccnc2)s1)c1cc(C2CC2)on1 | 598 s
21 | COc1ccc(-c2csc(Nc3ccccc3)n2)cc1 | 1070 s
22 | Cc1c(S(=O)(=O)N2CCCC(C)C2)c(C)n(C)c1C(=O)Nc1ccccc1F (configuration not stated) | 895 s
23 | COc1ccc(N2C=C(C(=O)N3CCCC3)S(=O)(=O)c3ccc(Cl)cc32)cc1OC | 816 s

Row | Compound | RP-LC retention time
24 | COc1ccc(-n2ncc(C(=O)N3CCN(C(=O)c4ccco4)CC3)c2-n2cccc2)cc1 | 717 s
25 | CC1(C(=O)NCc2ccccc2)Cn2cnc(C(=O)N3CCc4ccccc43)c2C(=O)N1C1CC1 (configuration not stated) | 720 s
26 | COC(=O)c1ccc(NC(=O)CSc2cc(N3CCN(c4ccc(OC)cc4)CC3)ncn2)cc1 | 926 s
27 | CCc1noc(-c2ccc(=O)n(CC(=O)Nc3ccc(F)cc3)c2)n1 | 1020 s
28 | Clc1ccccc1N1CCN(c2nccn3nc(-c4ccccc4)cc23)CC1 | 1330 s
29 | Cc1cc(-c2nnc(-c3ccco3)o2)c(C)n1CC(=O)NCc1cc(F)cc(F)c1 | 852 s
30 | Cc1ccc(Nc2nc(C)cc(N3CCN(S(=O)(=O)c4ccc5c(c4)OCCO5)CC3)n2)cc1 | 760 s
31 | CC(C)CCNC(=O)N1CCN(Cc2nc3cccnc3n2-c2ccc(F)cc2)CC1 | 667 s
32 | O=C(NCc1cc(F)ccc1F)C1CCN(C(=O)c2ncn3c2COC(c2ccccc2)C3)CC1 (configuration not stated) | 766 s
33 | COc1ccc(CC(=O)Nc2c3c(nn2-c2ccc([N+](=O)[O-])cc2)CSC3)cc1OC | 777 s
34 | Cn1ncc2c3ccccc3n(CC(=O)NCCc3cnc[nH]3)c2c1=O | 583 s
35 | CCOC(=O)c1c(-c2cccnc2)n(C)c2cc(-c3cccnc3)c(OC)cc12 | 634 s
36 | CC(C)Sc1nnc(N2CCN(c3ccc(F)cc3)CC2)s1 | 1000 s
37 | Cc1noc(C)c1CC(=O)N1CCC2(CC1)C(=O)N(C)c1ccccc12 | 720 s
38 | CCN(CC)C(=O)CN(C)C(=O)c1cc2c(s1)N(CC1CC1)CCCC2 | 947 s
39 | Cc1noc2nc(C)n(CC(=O)NCc3ccccc3)c(=O)c12 | 716 s
40 | CCOC(=O)c1noc2ncnc(N3CCN(c4ccccc4OC)CC3)c12 | 970 s
41 | CCc1nc(-c2csc(S(=O)(=O)N3CCCC(C(=O)NCc4ccc(Cl)cc4)C3)c2)no1 (configuration not stated) | 1030 s
42 | COCCc1noc(-c2nc(-c3ccc(OC)cc3)no2)n1 | 976 s
43 | CC(C)NC(=O)Nc1ccccc1NC(=O)c1cccnc1 | 591 s
44 | CCOc1ccc(CCNC(=O)c2cc3sccc3n2CC)cc1OCC | 1050 s
45 | CC(C)N1C(=O)C(C)(C(=O)Nc2cccc(Cl)c2)Oc2cccnc21 (configuration not stated) | 1070 s
46 | Cc1ccc2c(NCc3ccc4c(c3)OCO4)c(-c3nc(C)no3)cnc2n1 | 1070 s

Row | Compound | RP-LC retention time
47 | Cc1nc(Cn2cccc2C(=O)NC2CCCCCCC2)no1 | 954 s
48 | CC1CCC(NC(=O)C2CCCN(c3cn[nH]c(=O)c3)C2)CC1 (configuration not stated) | 680 s
49 | O=C(c1cncc(Br)c1)N1CCN(c2ccc(-c3ccco3)nn2)CC1 | 603 s
50 | COc1cc(C)c2c(c1C=O)Oc1c(c(C)c(O)c3c1C(O)OC3=O)OC2=O (configuration not stated) | 840 s
51 | COc1ccc(C2Cn3cnc(C(=O)N4CCC(C(=O)NCc5cccs5)CC4)c3CO2)cc1 (configuration not stated) | 715 s
52 | Cc1ccc2c(Nc3cc(F)ccc3F)c(C(=O)N3CCCC3)cnc2n1 | 584 s
53 | CC1=NS(=O)(=O)N(C)C=C1C(=O)OCc1nc(-c2ccccc2)no1 | 944 s
54 | O=C(c1ccccn1)N1CCc2cc(-c3csc(C4CC4)n3)ccc21 | 975 s
55 | N#Cc1ccc(Cl)cc1NC(=O)C(=O)NCC1CCCO1 (configuration not stated) | 759 s
56 | COc1ccc(Cc2nnc3sc(-c4ccccc4OC)nn23)cc1 | 976 s
57 | Cc1nc2cc(N3CCCC(C(=O)NCc4ccccc4)C3)cnc2nc1C (configuration not stated) | 705 s
58 | CCN1CCN(c2ccc(NC(=O)c3ccc(C)c(N4CCCC4=O)c3)cn2)C1=O | 600 s
59 | Cc1ccc(NC(=O)C2CCC(=O)N2S(=O)(=O)c2ccc(C)c(C)c2)cc1C (configuration not stated) | 1040 s
60 | O=C(CCC1CCCN(S(=O)(=O)c2ccc(F)cc2)C1)NC1CCS(=O)(=O)C1 (configuration not stated) | 731 s
61 | CCn1c(=O)c(C)nc2cc(-c3noc(Cc4ccc(OC)c(OC)c4)n3)ccc21 | 888 s
62 | CCOc1ccc(C(=O)NCc2nnc3n2CCCC3)cc1OCC | 674 s
63 | Cc1ccccc1CNC(=O)C1(C)CCCN(C(=O)Nc2ccccc2C(F)(F)F)C1 (configuration not stated) | 1010 s
64 | CCC(=O)NC(C)c1nc(-c2ccccc2OC)no1 (configuration not stated) | 665 s
65 | COc1cccc(C(=O)CSc2ccc(NC(=O)C3CC3)nn2)c1 | 797 s
66 | CCOc1ccc(C2Cn3nnc(-c4nc(-c5ccccc5Br)no4)c3CO2)cc1 (configuration not stated) | 1230 s
67 | O=S(=O)(c1cc(-c2nnc(C3CC3)o2)co1)N1CCN(C2CCCCC2)CC1 | 640 s
